Results reported in patent US11548889B2, “Emetine auristatin compounds” (Arizona Board of Regents on behalf of Arizona State …, priority 2019, dated 2023).
Where a name gives a salt, the structure may show the parent alone. Read-outs that look alike come from different tables or passages of the source.

What was measured:
SF-268 (CNS) = assay: Human cancer cell growth inhibition, sulforhodamine B assay (NCI); assay type: cell-based
Procedure: (§1) Cancer Cell Line Procedures. Human cancer cell growth inhibition was measured using the standard sulforhodamine B assay of the U.S. National Cancer Institute, as previously described.^12 Briefly, cells in a 5% fetal bovine serum/RPMI1640 medium were inoculated in 96-well plates and incubated for 24 h. That was followed by serial dilutions of the compounds added. Forty-eight hours later the plates were fixed with trichloroacetic acid, stained with sulforhodamine B, and read with an automated microplate reader.

MCF-7 (breast) = assay: as above; assay type: cell-based
Procedure: as §1
(§2) Next, growth inhibition of 50% (GI50 or the drug concentration causing a 50% reduction in the net protein increase) was calculated from optical density data with Immunosoft® software.

NCI-H460 (lung) = assay: as above; assay type: cell-based
Procedure: as §1, §2

KM20L2 (colon) = assay: as above; assay type: cell-based
Procedure: as §1, §2

DU-145 (prostate) = assay: as above; assay type: cell-based
Procedure: as §1, §2

BXPC-3 (pancreas) = assay: as above; assay type: cell-based
Procedure: as §1, §2

Human Cancer Cell Lines = assay: Human cancer cell growth inhibition, summary over the six cell line panel; assay type: cell-based; conditions: for biological activity (cancer cell growth inhibition): six cell line panel; for decrease in biological activity compared to both emetine and Compound 5: in four cell lines
Procedure: as §1, §2

[1] = test system: NCI 60 Cancer cell screen; conditions: cited from earlier work
[2] = NCI-H460, 48 h, sulforhodamine B

Row | Structure (SMILES) | GI50 (SF-268 (CNS); Homo sapiens, SF-268) | GI50 (SF-268 (CNS); Homo sapiens, SF-268, 48 h) | GI50 (MCF-7 (breast); Homo sapiens, MCF7) | GI50 (MCF-7 (breast); Homo sapiens, MCF7, 48 h) | GI50 (NCI-H460 (lung); Homo sapiens, NCI-H460) | GI50 (NCI-H460 (lung); Homo sapiens, NCI-H460, 48 h) | GI50 (KM20L2 (colon); Homo sapiens, KM-20L2) | GI50 (KM20L2 (colon); Homo sapiens, KM-20L2, 48 h) | GI50 (DU-145 (prostate); Homo sapiens, DU-145) | GI50 (DU-145 (prostate); Homo sapiens, DU-145, 48 h) | GI50 (BXPC-3 (pancreas); Homo sapiens, BXPC-3) | GI50 (BXPC-3 (pancreas); Homo sapiens, BXPC-3, 48 h) | GI50 (SF-268 (CNS); SF-268, 48 h, sulforhodamine B) | GI50 (MCF-7 (breast); MCF-7, 48 h, sulforhodamine B) | GI50 (NCI-H460 (lung); [2]) | GI50 (KM20L2 (colon); KM20L2, 48 h, sulforhodamine B) | GI50 (DU-145 (prostate); DU-145, 48 h, sulforhodamine B) | GI50 (BXPC-3 (pancreas); BXPC-3, 48 h, sulforhodamine B) | biological activity (cancer cell growth inhibition) (Human Cancer Cell Lines) | other results
1 | CC[C@H]1CN2CCc3cc(OC)c(OC)cc3C2C[C@@H]1C[C@@H]1c2cc(OC)c(OC)cc2CCN1C(=O)[C@H](C)[C@@H](OC)C1CCCN1C(=O)C[C@@H](OC)[C@H]([C@@H](C)CC)N(C)C(=O)[C@@H](NC(=O)[C@H](C(C)C)N(C)C)C(C)C (stereo in doubt) [Compound 5, 2N′-(Dov-Val-Dil-Dap)-Emetine] | 30.2 nM | 0.032 µg/mL | 35.8 nM | 0.038 µg/mL | 198 nM | 0.21 µg/mL | 35.8 nM | 0.038 µg/mL | 12.3 nM | 0.013 µg/mL | 386 nM | 0.41 µg/mL |  |  |  |  |  |  |  | decrease in activity compared to emetine (BXPC-3 (pancreas); BXPC-3 cell line): 10 fold; cytotoxicity relative to emetine (Human Cancer Cell Lines; in four of the six cell lines): comparable to that of emetine
2 | CC[C@H]1CN2CCc3cc(OC)c(OC)cc3[C@@H]2C[C@@H]1C[C@H]1NCCc2cc(OC)c(OC)cc21 [Compound 1, emetine dihydrochloride, reference compound] |  |  |  |  |  |  |  |  |  |  |  |  |  |  |  |  |  |  |  | GI50 (MCF-7 (breast); Homo sapiens, MCF7, MCF-7, 48 h, sulforhodamine B, read-out: GI50): 0.03 µg/mL; GI50 (MCF-7 (breast); Homo sapiens, MCF7, MCF-7, value in brackets, read-out: GI50): 54.2 nM; GI50 (NCI-H460 (lung); Homo sapiens, NCI-H460, 48 h, sulforhodamine B, read-out: GI50): 0.022 µg/mL; GI50 (NCI-H460 (lung); Homo sapiens, NCI-H460, value in brackets, read-out: GI50): 39.7 nM; GI50 (KM20L2 (colon); Homo sapiens, KM-20L2, KM20L2, 48 h, sulforhodamine B, read-out: GI50): 0.026 µg/mL; GI50 (KM20L2 (colon); Homo sapiens, KM-20L2, KM20L2, value in brackets, read-out: GI50): 47 nM; GI50 (DU-145 (prostate); Homo sapiens, DU-145, 48 h, sulforhodamine B, read-out: GI50): 0.02 µg/mL; GI50 (DU-145 (prostate); Homo sapiens, DU-145, value in brackets, read-out: GI50): 36.1 nM; GI50 (BXPC-3 (pancreas); Homo sapiens, BXPC-3, 48 h, sulforhodamine B, read-out: GI50): 0.031 µg/mL; GI50 (BXPC-3 (pancreas); Homo sapiens, BXPC-3, value in brackets, read-out: GI50): 56 nM
3 | CCC1CN2CCc3cc(OC)c(OC)cc3C2CC1CC1c2cc(OC)c(OC)cc2CCN1C(=O)C(C)C(OC)C1CCCN1.O=C(O)C(F)(F)F (stereo not shown) [Compound 3, 2′-N-(Dap)-emetine TFA salt] |  |  |  |  |  |  |  |  |  |  |  |  | 3.2 µg/mL | 1.4 µg/mL | 5.0 µg/mL | 3.0 µg/mL | 3.0 µg/mL | 2.1 µg/mL |  | GI50 (SF-268 (CNS); SF-268, value in brackets, read-out: GI50): 3650 nM; GI50 (MCF-7 (breast); MCF-7, value in brackets, read-out: GI50): 1600 nM; GI50 (NCI-H460 (lung); NCI-H460, value in brackets, read-out: GI50): 5700 nM; GI50 (KM20L2 (colon); KM20L2, value in brackets, read-out: GI50): 3420 nM; GI50 (DU-145 (prostate); DU-145, value in brackets, read-out: GI50): 3420 nM; GI50 (BXPC-3 (pancreas); BXPC-3, value in brackets, read-out: GI50): 2390 nM; decrease in activity compared to emetine (Human Cancer Cell Lines; in all six cell lines): 100 fold
4 | CCC1CN2CCc3cc(OC)c(OC)cc3C2CC1CC1c2cc(OC)c(OC)cc2CCN1C(=O)CCNC(=O)OC(C)(C)C (stereo not drawn) [Compound 6, 2′-(N-carboxy-β-alanyl)-tert-butyl emetine ester] |  |  |  |  |  |  |  |  |  |  |  |  | >10 µg/mL | 10 µg/mL | >10 µg/mL | >10 µg/mL | >10 µg/mL | >10 µg/mL | inactive | 
5 | CC[C@H]1CN2CCc3cc(OC)c(OC)cc3C2C[C@@H]1C[C@@H]1c2cc(OC)c(OC)cc2CCN1C(=O)CCN (stereo partly drawn) [Compound 7, 2′-N-(β-alanine)-emetine TFA salt] |  | > 10 µg/mL |  | > 10 µg/mL |  | > 10 µg/mL |  | > 10 µg/mL |  | 10.1 µg/mL |  | 10.3 µg/mL |  |  |  |  |  |  | inactive | 
6 | CCC1CN2CCc3cc(OC)c(OC)cc3C2CC1CC1c2cc(OC)c(OC)cc2CCN1C(=O)CCNC(=O)C(C)C(OC)C1CCCN1C(=O)OC(C)(C)C (stereo not shown) [Compound 8, 2′-N-(boc-dap-[…]-ala)-emetine] |  |  |  |  |  |  |  |  |  |  |  |  | >10 µg/mL | >10 µg/mL | >10 µg/mL | >10 µg/mL | 10.0 µg/mL | >10 µg/mL | inactive | 
7 | CC[C@H]1CN2CCc3cc(OC)c(OC)cc3C2C[C@@H]1C[C@@H]1c2cc(OC)c(OC)cc2CCN1C(=O)CCNC(=O)[C@H](C)[C@@H](OC)C1CCCN1C(=O)C[C@@H](OC)C([C@@H](C)CC)N(C)C(=O)[C@@H](NC(=O)[C@H](C(C)C)N(C)C)C(C)C (stereo partly drawn) [Compound 9, Dov-Val-Dil-Dap-β-Ala-Emetine] | 186 nM | 0.21 µg/mL | 159 nM | 0.18 µg/mL | 2830 nM | 3.2 µg/mL | 194 nM | 0.22 µg/mL | 97.2 nM | 0.11 µg/mL | 3800 nM | 4.3 µg/mL |  |  |  |  |  |  |  | decrease in biological activity compared to both emetine and Compound 5 (Human Cancer Cell Lines): 10 fold
8 | CC[C@H]1CN2CCc3cc(OC)c(OC)cc3C2C[C@@H]1C[C@@H]1c2cc(OC)c(OC)cc2CCN1CCNC(=O)[C@H](C)[C@@H](OC)C1CCCN1C(=O)C[C@@H](OC)C([C@@H](C)CC)N(C)C(=O)[C@@H](NC(=O)[C@H](C(C)C)N(C)C)C(C)C (stereo partly drawn) [Compound 10, 2′-N-(ethylamine-N-Dap-Dil-Val-Dov)-Emetine] | 272 nM | 0.3 µg/mL | 118 nM | 0.13 µg/mL | 4530 nM | 5 µg/mL | 362 nM | 0.4 µg/mL | 181 nM | 0.2 µg/mL | 1900 nM | 2.1 µg/mL |  |  |  |  |  |  |  | decrease in biological activity compared to both emetine and Compound 5 (Human Cancer Cell Lines): 10 fold
9 | CC[C@H]1CN2CCc3cc(OC)c(OC)cc3[C@@H]2C[C@@H]1C[C@H]1NCCc2cc(OC)c(OC)cc21 [Emetine] |  |  |  |  |  |  |  |  |  |  |  |  |  |  |  |  |  |  |  | G150 [1]: 27 nM
